In paper PMC4729137, “Functional analysis of androgen receptor mutations that confer anti-androgen resistance identified in circulating cell-free DNA from prostate cancer patients” (Genome Biology, 2016):
Numbering of substitutions follows the chain as printed.

Legend:
L882I-AR = biological target: T1, L882I-AR (Homo sapiens, UniProt P10275, L882I); format: cell-based; conditions: AR mutant L882I; transfected PC3 cells; 0.1 nM R1881; drug 0 to 50 μM
T1 sequence (P10275 1-920 L882I): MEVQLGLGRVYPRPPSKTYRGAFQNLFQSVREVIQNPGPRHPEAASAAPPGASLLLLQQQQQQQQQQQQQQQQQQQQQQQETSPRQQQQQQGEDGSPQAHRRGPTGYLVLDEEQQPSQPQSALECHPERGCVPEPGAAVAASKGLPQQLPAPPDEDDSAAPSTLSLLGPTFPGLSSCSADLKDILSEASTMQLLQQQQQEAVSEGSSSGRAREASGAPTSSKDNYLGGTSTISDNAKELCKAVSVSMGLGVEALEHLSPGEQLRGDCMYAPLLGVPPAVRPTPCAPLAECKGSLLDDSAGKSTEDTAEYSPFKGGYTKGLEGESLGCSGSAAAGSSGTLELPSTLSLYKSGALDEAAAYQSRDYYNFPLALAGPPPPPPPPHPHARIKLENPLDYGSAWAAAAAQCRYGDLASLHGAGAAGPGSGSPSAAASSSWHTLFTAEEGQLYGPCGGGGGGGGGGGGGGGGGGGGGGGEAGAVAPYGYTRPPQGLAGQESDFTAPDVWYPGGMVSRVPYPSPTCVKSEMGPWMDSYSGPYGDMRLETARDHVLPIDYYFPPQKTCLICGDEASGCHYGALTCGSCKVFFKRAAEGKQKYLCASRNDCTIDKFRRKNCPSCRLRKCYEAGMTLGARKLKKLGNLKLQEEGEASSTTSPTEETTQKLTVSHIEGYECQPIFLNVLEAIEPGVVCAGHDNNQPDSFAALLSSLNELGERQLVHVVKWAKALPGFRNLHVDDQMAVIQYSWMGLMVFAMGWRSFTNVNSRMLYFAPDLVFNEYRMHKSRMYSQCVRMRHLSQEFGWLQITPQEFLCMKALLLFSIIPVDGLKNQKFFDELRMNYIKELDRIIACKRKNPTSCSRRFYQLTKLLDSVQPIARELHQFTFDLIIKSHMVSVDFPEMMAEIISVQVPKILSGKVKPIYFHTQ
Description: (§1) Full-length human AR (WT-AR) was encoded on a pcDNA3.1 expression plasmid (Life technologies). The LBD point mutations (single and multiple) were generated using the QuikChange II Site-Directed Mutagenesis Kit (Agilent Technologies) as per manufacturer’s instructions using WT-AR as the template. The mutagenic oligonucleotide primers were designed individually with the desired mutation in the middle of the primer with approximately 10 to 15 bases of correct sequence on both sides.
(§2) PC3 cells were seeded and transfected as described above. […] A non-stimulated/no R1881 control was used. After 24 h, cells were lysed and AR-dependent luciferase activity was quantified. Each concentration was assayed in quadruplicate n = 4, with a biological replicate of n = 3. Results were averaged and normalized by expressing them as a percentage of WT AR activity.

D880E-AR = biological target: T2, D880E-AR (Homo sapiens, UniProt P10275, D880E); format: cell-based; conditions: AR mutant D880E; transfected PC3 cells; 0.1 nM R1881; drug 0 to 50 μM
T2 sequence (P10275 1-920 D880E): T1 sequence (P10275 1-920 L882I) with D880E, I882L
Description: as §1, §2

Agonist response to treatment (L882I-AR): Partial | Agonist response to treatment (D880E-AR): Partial
Compound: CC(C)(O)C(=O)Nc1ccc([N+](=O)[O-])c(C(F)(F)F)c1 [Hydroxyflutamide, hydroxyflutamide]
